Patent EP4772186A1, “USE AND COMPOSITION OF POSTBIOTIC OF LACTOBACILLUS PARACASEI ET-22” (Inner Mongolia Yili Industrial Group Co., Ltd., priority 2023, dated 2025)

Key:
[1] = test system: fadA; assay: RT-PCR of virulence factors in multi-species biofilm; type: cell-based, Fusobacterium nucleatum; conditions: relative to ET-22 viable bacteria (ET22-L) and ET-22 heat-inactivated bacteria (ET22-HK)
Description: 100 µl of saliva was added to a 24-well plate, then 100 µl of the corresponding concentration solution was added respectively to the experimental groups, and finally 800 µl of SHI medium was added. The plate was placed in an anaerobic box and cultured anaerobically at 37°C for 10 hours. Then, the supernatant was discarded, and the multi-species biofilm adhered to the well plate was obtained. After discarding the supernatant from the incubated biofilm, the biofilm adhered to the bottom of the well plate was re-suspended with sterile water by pipetting, transferred to a 1.5 ml centrifuge tube, and stored until gene sequencing was performed.
This example evaluated the effects of lysate, NAD, 2-hydroxy-3-phenylpropionic acid, polypeptide GP(Hyp)GAG, and peptidoglycan on halitosis virulence factors, including cdl, fadA, mgl, and gtfb. The gene cdl can regulate the expression of L-cysteine […], which can catalyze the degradation of protein substrate to produce VSC, thereby causing halitosis. Fusobacterium nucleatum secretes an amyloid-like adhesin (fadA) via the fap2-like autotransporter protein to enhance its virulence. […]
After the sample RNA was reverse-transcribing into cDNA, RT-PCR reaction was performed to detect biofilm-related virulence factors. Experimental results were calculated using the 2^-△△CT method. […]

[2] = test system: VSC concentration; assay: in vitro Halimeter determination of VSC concentration in saliva fermentation; type: cell-based, halitosis subjects (saliva); conditions: compared with CK group, anaerobic cultivation 10 hours
Description: Fresh saliva was collected from 10 halitosis subjects (Halimeter index >120). Subjects were required not to consume any food or drink for 2 hours before donating saliva. Saliva was directly spat into a saliva collection tube, 5 ml per person, and mixed. The mixture was centrifuged at 4500 rpm for 10 minutes, and the supernatant was collected, aliquoted, and stored at -80°C for subsequent experimental studies.
(§1) Lysate observation group: In a 10 ml sample vial, 100 µl of saliva was added first, followed by the separate addition of ET-22 viable bacteria (1.0×10^9 CFU/ml), ET-22 heat-inactivated bacterial cells (obtained by inactivating viable bacteria at 1.0×10^9 CFU/ml), and lysate (obtained by inactivating and then filtering viable bacteria at 1.0×10^9 CFU/ml), each at 100µl. Then, 1.8 ml of SHI medium was added. After filling with nitrogen, anaerobic cultivation was performed for 10 hours. Then, the obtained culture was placed in a 60°C water bath for 30-min incubation. VSC concentration was measured using the in vitro Halimeter method.
(§2) Group of two nucleotides: In a 10 ml sample vial, 100 µl of saliva was added first, followed by the separate addition of ET-22 viable bacteria (1.0×10^9 CFU/ml), ET-22 heat-inactivated bacterial cells (obtained by inactivating viable bacteria at 1.0×10^9 CFU/ml), NAD, and FAD (500 µg/ml, 100 µg/ml, 10 µg/ml), each at 100µl. Then, 1.8 ml of SHI medium was added. After filling with nitrogen, anaerobic cultivation was performed for 10 hours. Then, the obtained culture was placed in a 60°C water bath for 30-min incubation. VSC concentration was measured using the in vitro Halimeter method.
as §2, with “five organic acids:” for “two nucleotides:”, “heat-inactivating” for “inactivating”, “CFU/ml),” for “CFU/ml), NAD,”, “five organic acid components” for “FAD”
as §2, with “Observation group” for “Group”, “four polypeptides:” for “two nucleotides:”, “heat-inactivating” for “inactivating”, “CFU/ml),” for “CFU/ml), NAD,”, “components of four polypeptides” for “FAD”
as §1, with “Peptidoglycan” for “Lysate observation”, “peptidoglycan (peptidoglycan extracted from” for “lysate (obtained by inactivating and then filtering”, “CFU/ml).” for “CFU/ml), each at 100µl.”, “method. […]” for “method.”

In the case of `O=C(O)C(O)Cc1ccccc1` (stereo not drawn) [2-hydroxy-3-phenylpropionic acid], the “inhibitory effect on the expression of virulence factor fadA” value [1] is reported as “better”, the VSC concentration ([2]; high concentration (500 µg/ml)) is reported as “significantly lower than that in the control group” and the VSC concentration ([2]; medium concentration (100 µg/ml)) is reported as “significantly lower than that in the control group”.
